11 molecules from ChEMBL document CHEMBL1201862, “PubChem BioAssay data set” (2004) can be followed below.

Test systems include A498; HOP-92; NCI-H23; EKVX; HT-29; SK-MEL-2; HCT-116; Malme-3M; M14; IGROV-1; COLO 205; SF-295; UACC-257; DU-145; U-251; SK-MEL-5; SR; HOP-62; SK-OV-3; MDA-MB-435.
Holding throughout (assay): NCI anticancer screen, dose series, 48 h

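Where inhibition never reached the appropriate level, the endpoint shown equals the highest concentration tested. Otherwise, values were interpolated linearly from a five-concentration, 48-hour dose response in 96-well plates. GI50 = concentration required for 50% inhibition of growth.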 Active and inactive are the calls of the source. No stated cut-off is given here; in the data, active = GI50 up to about 1.1 µM and inactive = higher.

With `COc1cc(O)c2c(=O)c(O)c(-c3ccc(O)c(OC)c3)oc2c1` [RHAMNAZIN], the GI50 in the assay with A498 was 2.73 µM (inactive); in the assay on HOP-92 it was 0.838 µM (active); in the assay with NCI-H23, > 26.5 µM (inactive); in the assay on EKVX it was > 22.3 µM (inactive); with HT-29, 44.2 µM (inactive); with SK-MEL-2, > 100 µM (inactive). For the same molecule, the GI50 in the assay with HCT-116 was 5.15 µM (inactive); with Malme-3M it was > 100 µM (inactive); in the assay on M14, 4.66 µM (inactive); in the assay with IGROV-1, > 100 µM (inactive); with COLO 205, 33.7 µM (inactive); in the assay with SF-295, > 100 µM (inactive). Moreover, the results for the GI50 with UACC-257, in the assay on DU-145 and with U-251 were > 100 µM (inactive), > 100 µM (inactive) and 2.19 µM (inactive), respectively.

`C=C1CN=C(Nc2ccc(Cl)cc2)S1`: the GI50 in the assay with A498 was > 100 µM (inactive); in the assay with SK-MEL-5 it was > 100 µM (inactive); in the assay on SR, 52.8 µM (inactive); in the assay with HOP-92 it was 28.2 µM (inactive); in the assay with NCI-H23, > 100 µM (inactive); with EKVX it was > 100 µM (inactive). Also, the GI50 in the assay on HT-29, in the assay with SK-MEL-2, in the assay with HCT-116, in the assay on HOP-62, in the assay with Malme-3M and with M14 was > 100 µM (inactive) each time. Moreover, the GI50 in the assay with IGROV-1, with COLO 205, with SK-OV-3, with SF-295, with UACC-257 and in the assay on DU-145 was > 100 µM (inactive) each time. The GI50 in the assay with U-251 was 93.3 µM (inactive).

With `C=CC[C@@]1(C(=O)OC)[C@H](Sc2ccccc2)C1(C)C`, the GI50 in the assay with A498 is 31.3 µM (inactive); with SK-MEL-5, 18.7 µM (inactive); with HOP-92, 13.8 µM (inactive); in the assay on NCI-H23, 23.2 µM (inactive); in the assay on EKVX, 33.3 µM (inactive); in the assay with MDA-MB-435, 30.9 µM (inactive). In addition, the GI50 is 24.9 µM (inactive) in the assay on HT-29; 24.2 µM (inactive) in the assay on SK-MEL-2; 23.6 µM (inactive) in the assay on HCT-116; > 100 µM (inactive) in the assay with HOP-62; 29.4 µM (inactive) with Malme-3M; 56.8 µM (inactive) in the assay on M14. Further, the GI50 is 26.9 µM (inactive) with IGROV-1; 33.3 µM (inactive) in the assay with COLO 205; > 100 µM (inactive) in the assay on SK-OV-3; 36.1 µM (inactive) in the assay with SF-295; 34 µM (inactive) with UACC-257; 67.9 µM (inactive) in the assay with DU-145. For the same molecule, the GI50 in the assay on U-251 was 49.2 µM (inactive).

For `COc1cc2c3c(c1OC)Oc1ccc(cc1)CC1c4c(cc(OC)c(OC)c4Oc4ccc(cc4)CC3N(C)CC2)CCN1C` (centres undefined), the GI50 is 0.0169 µM (active) with A498; 16.7 µM (inactive) with SK-MEL-5; 2.88 µM (inactive) in the assay on SR; 32.6 µM (inactive) in the assay with HOP-92; 57.9 µM (inactive) with NCI-H23; 67.6 µM (inactive) in the assay with EKVX. Moreover, the GI50 in the assay on HT-29 was 15.1 µM (inactive); in the assay with SK-MEL-2, 32.3 µM (inactive); in the assay with HCT-116, 13.8 µM (inactive); in the assay on HOP-62 it was 22.4 µM (inactive); in the assay with Malme-3M, 20.3 µM (inactive); in the assay on M14, 18.8 µM (inactive). Also, the GI50 was 13.4 µM (inactive) in the assay with IGROV-1; 13.5 µM (inactive) in the assay on COLO 205; 28.2 µM (inactive) in the assay on SK-OV-3; 18.5 µM (inactive) in the assay with SF-295; 13.8 µM (inactive) in the assay with UACC-257; 15.8 µM (inactive) in the assay on U-251.

On to `Cc1nnc(N)s/c1=N/O`, for which the GI50 is > 100 µM (inactive) with A498; 56.9 µM (inactive) in the assay on SK-MEL-5; > 100 µM (inactive) in the assay with HOP-92; > 100 µM (inactive) with NCI-H23; > 100 µM (inactive) in the assay on EKVX; > 100 µM (inactive) in the assay on MDA-MB-435. For the same molecule, the GI50 in the assay on HT-29, in the assay with SK-MEL-2, in the assay with HCT-116, in the assay with HOP-62, with Malme-3M and in the assay with M14 was > 100 µM (inactive) in each case. Besides, the GI50 was > 100 µM (inactive) with IGROV-1; > 100 µM (inactive) in the assay with COLO 205; > 100 µM (inactive) in the assay with SK-OV-3; > 100 µM (inactive) in the assay on SF-295; 56.9 µM (inactive) in the assay on UACC-257; > 100 µM (inactive) with DU-145. For the same molecule, the GI50 in the assay with U-251 is > 100 µM (inactive).

Take `COc1cc2c(cc1OC)[C@@H](C(O)c1ccccc1)NCC2` (some centres undefined): the GI50 in the assay on A498, with SK-MEL-5, in the assay with SR, in the assay with HOP-92, with NCI-H23 and in the assay with EKVX was > 100 µM (inactive) each time. In addition, the GI50 in the assay on HT-29, in the assay on SK-MEL-2, in the assay with HCT-116, in the assay with HOP-62, in the assay on Malme-3M and in the assay on M14 was > 100 µM (inactive) each time. Moreover, the GI50 with IGROV-1, with COLO 205, with SK-OV-3, in the assay with SF-295, with UACC-257 and in the assay on U-251 was > 100 µM (inactive) in each case.

On to `CC(=O)OCC1OC(OC2CC3C(C)(C)C(OC(C)=O)CC[C@]3(C)C3CCC45CC4(CCC5[C@@H](C)C[C@H](O)C(O)C(C)(C)O)[C@]23C)C(O)C(O)C1O` (some centres undefined), for which the GI50 in the assay with A498 is > 10 µM (inactive); with SK-MEL-5 it was > 10 µM (inactive); with HOP-92 it was 9.44 µM (inactive); in the assay with NCI-H23, > 10 µM (inactive); in the assay on EKVX, > 10 µM (inactive); in the assay on MDA-MB-435, > 10 µM (inactive). Further, the GI50 with HT-29 is > 10 µM (inactive); with SK-MEL-2, 5.65 µM (inactive); with HCT-116 it was > 10 µM (inactive); in the assay with HOP-62 it was > 10 µM (inactive); with Malme-3M, > 10 µM (inactive); in the assay on M14 it was > 10 µM (inactive). Also, the GI50 in the assay on IGROV-1, in the assay with COLO 205, with SK-OV-3, in the assay with SF-295, with UACC-257 and with DU-145 was > 10 µM (inactive) in each case. Besides, in the assay on U-251, the GI50 is > 10 µM (inactive).

For the molecule `CCOC(=O)C(NC(=O)Nc1ccccc1F)(OC)C(F)(F)F` (centres undefined), the GI50 in the assay with A498, in the assay with SK-MEL-5, in the assay on SR, in the assay with NCI-H23, in the assay with EKVX and in the assay with MDA-MB-435 was > 100 µM (inactive) each time. For the same molecule, the GI50 with HT-29, with SK-MEL-2, in the assay with HCT-116, in the assay on M14, with IGROV-1 and in the assay with COLO 205 was > 100 µM (inactive) each time. The GI50 in the assay with SK-OV-3, in the assay on UACC-257 and in the assay on U-251 was > 100 µM (inactive) in each case.

In the case of `COC(=O)c1c(C(=O)OC)c2ccc(-c3ccc(Cl)cc3)nn2c1C(=O)c1ccc([N+](=O)[O-])cc1`, the GI50 with A498 is > 100 µM (inactive); in the assay on SK-MEL-5, 52.1 µM (inactive); in the assay with HOP-92, 10.8 µM (inactive); with NCI-H23 it was > 100 µM (inactive); in the assay on EKVX it was 27.4 µM (inactive); in the assay on MDA-MB-435 it was 50.1 µM (inactive). For the same molecule, the GI50 in the assay on HT-29 was 37.2 µM (inactive); with SK-MEL-2, 34.8 µM (inactive); in the assay on HCT-116, 27.2 µM (inactive); in the assay with HOP-62, > 100 µM (inactive); in the assay with M14 it was 40.6 µM (inactive); with COLO 205, 27.3 µM (inactive). Moreover, the GI50 with SK-OV-3, with SF-295, in the assay on UACC-257, with DU-145 and in the assay on U-251 was > 100 µM (inactive) throughout.

Regarding `C[Si](C)(C)C#CCOC=C1CC1`, the GI50 in the assay with SK-MEL-5 is > 100 µM (inactive); in the assay with SR, 52.5 µM (inactive); in the assay with NCI-H23, > 100 µM (inactive); in the assay with EKVX, > 100 µM (inactive); in the assay with HT-29 it was > 100 µM (inactive); in the assay on SK-MEL-2 it was > 100 µM (inactive). Besides, the GI50 in the assay with HCT-116 is > 100 µM (inactive); in the assay with HOP-62 it was > 100 µM (inactive); in the assay on Malme-3M it was > 100 µM (inactive); with M14 it was > 100 µM (inactive); with IGROV-1, 70.8 µM (inactive); with COLO 205, > 100 µM (inactive). Moreover, the GI50 in the assay on SK-OV-3, in the assay on SF-295, with UACC-257, in the assay with DU-145 and in the assay on U-251 was > 100 µM (inactive) each time.

`CCCCCCCCCCCCC(=O)CCCCC(=O)O`: the GI50 was 16.8 µM (inactive) in the assay on A498; 18.2 µM (inactive) in the assay on SK-MEL-5; 19.5 µM (inactive) with SR; 18.6 µM (inactive) with HOP-92; 35.2 µM (inactive) in the assay with NCI-H23; 33.3 µM (inactive) in the assay with EKVX. Also, the GI50 was 15.8 µM (inactive) in the assay on HT-29; 20.7 µM (inactive) in the assay with SK-MEL-2; 20.6 µM (inactive) with HCT-116; 18.3 µM (inactive) with HOP-62; 21.6 µM (inactive) with Malme-3M; 17.5 µM (inactive) in the assay with M14. Moreover, the GI50 in the assay on IGROV-1 is 17.3 µM (inactive); in the assay with COLO 205, 16.7 µM (inactive); in the assay on SK-OV-3 it was 68.2 µM (inactive); in the assay with SF-295, 23.4 µM (inactive); with UACC-257, 38 µM (inactive); in the assay with U-251, 24.4 µM (inactive).
